Experimental data from ChEMBL document CHEMBL2177034, “Inhibition of hypoxia inducible factor-2 transcription: isolation of active modulators from marine sponges” (J Nat Prod, 2012).
Active and inactive are the calls of the source. The calls are words filed in the database; no cut-off is given here.

How the values were obtained:
786-0 [1] = test: Downregulation of HIF1alpha mRNA expression in human 786-0 cells at 20 uM after 48 hrs by RT-PCR analysis; type: functional, cell-based
[2] = target: T1, Endothelial PAS domain-containing protein 1 (Homo sapiens, UniProt Q99814); test: Inhibition of HIF2alpha in human 786-0 cells assessed as reduction in VEGFA mRNA expression at 20 uM after 48 hrs by RT-PCR analysis; type: cell-based
T1 sequence (Q99814 whole entry, the tested form may be a part): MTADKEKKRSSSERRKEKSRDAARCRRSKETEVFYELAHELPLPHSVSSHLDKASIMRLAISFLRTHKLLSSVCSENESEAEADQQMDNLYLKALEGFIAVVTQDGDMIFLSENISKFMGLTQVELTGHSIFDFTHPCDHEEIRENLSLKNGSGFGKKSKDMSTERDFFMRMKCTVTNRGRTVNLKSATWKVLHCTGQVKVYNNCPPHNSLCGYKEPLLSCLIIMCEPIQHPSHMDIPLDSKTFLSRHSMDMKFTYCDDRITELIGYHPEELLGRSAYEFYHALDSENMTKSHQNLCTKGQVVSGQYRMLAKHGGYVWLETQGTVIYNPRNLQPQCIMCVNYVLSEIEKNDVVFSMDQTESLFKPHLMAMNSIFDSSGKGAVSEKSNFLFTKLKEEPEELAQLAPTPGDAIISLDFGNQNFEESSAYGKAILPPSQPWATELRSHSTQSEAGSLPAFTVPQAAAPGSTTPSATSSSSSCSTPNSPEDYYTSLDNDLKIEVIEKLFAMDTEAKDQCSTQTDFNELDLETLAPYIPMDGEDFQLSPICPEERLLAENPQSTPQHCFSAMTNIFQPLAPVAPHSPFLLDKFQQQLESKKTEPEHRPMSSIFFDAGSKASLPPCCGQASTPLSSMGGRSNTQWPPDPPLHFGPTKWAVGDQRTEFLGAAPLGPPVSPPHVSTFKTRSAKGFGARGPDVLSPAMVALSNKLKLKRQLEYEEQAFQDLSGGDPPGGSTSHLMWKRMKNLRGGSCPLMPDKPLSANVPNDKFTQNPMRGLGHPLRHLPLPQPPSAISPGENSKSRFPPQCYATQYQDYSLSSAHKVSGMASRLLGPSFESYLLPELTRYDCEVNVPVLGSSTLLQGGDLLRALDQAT

[3] = target: T1, Endothelial PAS domain-containing protein 1; test: Inhibition of HIF2alpha in human 786-0 cells assessed as reduction in CCND1 mRNA expression at 20 uM after 48 hrs by RT-PCR analysis; type: cell-based
[4] = target: T1, Endothelial PAS domain-containing protein 1; test: Inhibition of HIF2alpha in human 786-0 cells assessed as reduction in GLUT1 mRNA expression at 20 uM after 48 hrs by RT-PCR analysis; type: cell-based
[5] = target: T1, Endothelial PAS domain-containing protein 1; test: Inhibition of HIF2alpha in human 786-0 cells assessed as reduction in TGFalpha mRNA expression at 20 uM after 48 hrs by RT-PCR analysis; type: cell-based
[6] = Cytotoxicity against human SK-RC-28 cells expressing HIF1alpha after 2 days by XTT assay; type: functional, cell-based; details: 48 h
[7] = Cytotoxicity against human RCC4 cells expressing HIF2alpha and HIF1alpha after 2 days by XTT assay; type: functional, cell-based; details: RCC4, 48 h
786-0 [8] = test: Cytotoxicity against human 786-0 cells expressing HIF2alpha after 2 days by XTT assay; type: functional, cell-based; details: 786-0, 48 h
786-0 [9] = test: Inhibition of total protein expression in serum deprived human 786-0 cells at 20 uM after 48 hrs relative to control; type: cell-based; details: 786-0, 48 h, 20 µM
786-0 [10] = test: Inhibition of HIF-mediated VEGFA protein expression in serum deprived human 786-0 cells at 20 uM after 48 hrs relative to control; type: cell-based
[11] = target: T1, Endothelial PAS domain-containing protein 1; test: Inhibition of HIF2alpha in human 786-0 cells expressing truncated HIF1alpha assessed as reduction in luciferase activity after 24 hrs by reporter gene assay; type: cell-based
[12] = Downregulation of actin mRNA expression in human SK-RC-28 cells expressing HIF2alpha at 20 uM after 48 hrs by RT-PCr analysis; type: ADME, cell-based
[13] = Downregulation of actin mRNA expression in human RCC4 cells expressing HIF1alpha and HIF2alpha at 20 uM after 48 hrs by RT-PCr analysis; type: ADME, cell-based; details: rcc4, 48 h
786-0 [14] = test: Downregulation of actin mRNA expression in human […] at 20 uM after 48 hrs by RT-PCr analysis; type: ADME, cell-based; details: 786-0, 48 h
[15] = target: Hypoxia-inducible factor 1-alpha (Homo sapiens) (UniProt Q16665); test: Inhibition of HIF1alpha in human SK-RC-28 cells assessed as reduction in carbonic anhydrase 9 expression at 20 uM after 48 hrs by RT-PCR analysis; type: cell-based
Sequence of Hypoxia-inducible factor 1-alpha (Homo sapiens) (Q16665 whole entry, looked up): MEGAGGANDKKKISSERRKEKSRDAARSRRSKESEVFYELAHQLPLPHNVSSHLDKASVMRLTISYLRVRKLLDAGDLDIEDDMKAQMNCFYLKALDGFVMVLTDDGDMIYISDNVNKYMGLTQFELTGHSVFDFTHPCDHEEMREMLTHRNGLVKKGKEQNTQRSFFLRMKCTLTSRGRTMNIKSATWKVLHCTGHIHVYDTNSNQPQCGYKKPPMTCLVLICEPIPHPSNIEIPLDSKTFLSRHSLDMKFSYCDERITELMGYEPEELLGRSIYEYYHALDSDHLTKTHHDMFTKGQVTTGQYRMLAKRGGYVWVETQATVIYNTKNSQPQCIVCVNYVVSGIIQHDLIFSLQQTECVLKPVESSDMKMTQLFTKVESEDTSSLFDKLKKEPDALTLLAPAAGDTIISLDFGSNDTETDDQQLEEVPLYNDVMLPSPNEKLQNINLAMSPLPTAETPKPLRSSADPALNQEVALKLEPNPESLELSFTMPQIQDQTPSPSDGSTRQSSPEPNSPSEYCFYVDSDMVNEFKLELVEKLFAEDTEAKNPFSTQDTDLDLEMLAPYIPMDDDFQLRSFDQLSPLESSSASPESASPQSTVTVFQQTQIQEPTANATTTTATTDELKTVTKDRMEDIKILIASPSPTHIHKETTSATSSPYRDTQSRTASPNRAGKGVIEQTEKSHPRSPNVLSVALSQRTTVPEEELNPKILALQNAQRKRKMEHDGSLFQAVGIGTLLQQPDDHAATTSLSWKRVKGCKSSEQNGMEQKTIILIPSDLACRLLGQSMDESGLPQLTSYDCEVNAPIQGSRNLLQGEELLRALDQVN

[16] = (§1) Downregulation of HIF2alpha mRNA expression in human RCC4 cells at 20 uM after 48 hrs by RT-PCR analysis; type: functional, cell-based
[17] = (§2) Downregulation of HIF1alpha mRNA expression in human RCC4 cells at 20 uM after 48 hrs by RT-PCR analysis; type: functional, cell-based
[18] = target: Hypoxia-inducible factor 1-alpha (Homo sapiens) (UniProt Q16665); test: Inhibition of HIF1alpha in human RCC4 cells coexpressing HIF2alpha assessed as decrease in carbonic anhydrase 9 mRNA expression at 20 uM after 48 hrs by RT-PCR analysis; type: cell-based
786-0 [19] = test: Downregulation of carbonic anhydrase 9 expression in human 786-0 cells at 20 uM after 48 hrs by RT-PCR analysis; type: functional, cell-based
[20] = target: Hypoxia-inducible factor 1-alpha (Homo sapiens) (UniProt Q16665); test: Inhibition of HIF1alpha in human SK-RC-28 cells assessed as reduction in VEGFA expression at 20 uM after 48 hrs by RT-PCR analysis; type: cell-based
[21] = target: Hypoxia-inducible factor 1-alpha (Homo sapiens) (UniProt Q16665); test: Inhibition of HIF1alpha in human SK-RC-28 cells assessed as reduction in carbonic anhydrase expression at 20 uM after 48 hrs by RT-PCR analysis; type: cell-based
[22] = Downregulation of HIF2alpha mRNA expression in human SK-RC-28 cells at 20 uM after 48 hrs by RT-PCR analysis; type: functional, cell-based
[23] = Downregulation of HIF1alpha mRNA expression in human SK-RC-28 cells at 20 uM after 48 hrs by RT-PCR analysis; type: functional, cell-based
[24] = Downregulation of CCND1 mRNA expression in human SK-RC-28 cells at 20 uM after 48 hrs by RT-PCR analysis; type: functional, cell-based
[25] = Downregulation of GLUT1 mRNA expression in human SK-RC-28 cells at 20 uM after 48 hrs by RT-PCR analysis; type: functional, cell-based
[26] = Downregulation of TGFalpha mRNA expression in human SK-RC-28 cells at 20 uM after 48 hrs by RT-PCR analysis; type: functional, cell-based
[27] = as §1; type: functional, cell-based; remark: listed apart in the source
[28] = as §2; type: functional, cell-based; remark: listed apart in the source
[29] = target: T2, Hypoxia inducible factors; HIF-1-alpha, HIF-2-alpha (Homo sapiens) (UniProt Q16665+Q99814); test: Inhibition of HIF1alpha/2alpha in human RCC4 cells assessed as reduction in VEGFA mRNA expression at 20 uM after 48 hrs by RT-PCR analysis; type: cell-based
[30] = target: T1, Endothelial PAS domain-containing protein 1; test: Inhibition of HIF2alpha in human RCC4 cells coexpressing HIF1alpha assessed as reduction in CCND1 mRNA expression at 20 uM after 48 hrs by RT-PCR analysis; type: cell-based
[31] = target: T1, Endothelial PAS domain-containing protein 1; test: Inhibition of HIF2alpha in human RCC4 cells coexpressing HIF1alpha assessed as reduction in GLUT1 mRNA expression at 20 uM after 48 hrs by RT-PCR analysis; type: cell-based
[32] = target: T1, Endothelial PAS domain-containing protein 1; test: Inhibition of HIF2alpha in human RCC4 cells coexpressing HIF1alpha assessed as reduction in TGFalpha mRNA expression at 20 uM after 48 hrs by RT-PCR analysis; type: cell-based
786-0 [33] = test: Downregulation of HIF2alpha mRNA expression in human 786-0 cells at 20 uM after 48 hrs by RT-PCR analysis; type: functional, cell-based
786-0 [34] = test: Inhibition of HIF-mediated VEGFA protein expression in serum deprived human 786-0 cells at 1 uM after 48 hrs relative to control; type: cell-based
[35] = Downregulation of HIF2alpha mRNA expression in human SK-RC-28 cells at 1 uM after 48 hrs by RT-PCR analysis; type: functional, cell-based
[36] = Downregulation of HIF1alpha mRNA expression in human SK-RC-28 cells at 1 uM after 48 hrs by RT-PCR analysis; type: functional, cell-based
[37] = Downregulation of CCND1 mRNA expression in human SK-RC-28 cells at 1 uM after 48 hrs by RT-PCR analysis; type: functional, cell-based
[38] = Downregulation of GLUT1 mRNA expression in human SK-RC-28 cells at 1 uM after 48 hrs by RT-PCR analysis; type: functional, cell-based
[39] = Downregulation of TGFalpha mRNA expression in human SK-RC-28 cells at 1 uM after 48 hrs by RT-PCR analysis; type: functional, cell-based
[40] = target: Hypoxia-inducible factor 1-alpha (Homo sapiens) (UniProt Q16665); test: Inhibition of HIF1alpha in human SK-RC-28 cells assessed as reduction in VEGFA at 1 uM after 48 hrs by RT-PCR analysis; type: cell-based
[41] = target: Hypoxia-inducible factor 1-alpha (Homo sapiens) (UniProt Q16665); test: Inhibition of HIF1alpha in human SK-RC-28 cells assessed as reduction in carbonic anhydrase 9 expression at 1 uM after 48 hrs by RT-PCR analysis; type: cell-based
[42] = Downregulation of HIF2alpha mRNA expression in human RCC4 cells at 1 uM after 48 hrs by RT-PCR analysis; type: functional, cell-based
[43] = Downregulation of HIF1alpha mRNA expression in human RCC4 cells at 1 uM after 48 hrs by RT-PCR analysis; type: functional, cell-based
[44] = target: T2, Hypoxia inducible factors; HIF-1-alpha, HIF-2-alpha (Homo sapiens); test: Inhibition of HIF1alpha/2alpha in human RCC4 cells assessed as reduction in VEGFA mRNA expression at 1 uM after 48 hrs by RT-PCR analysis; type: cell-based
[45] = target: T1, Endothelial PAS domain-containing protein 1; test: Inhibition of HIF2alpha in human RCC4 cells coexpressing HIF1alpha assessed as reduction in CCND1 mRNA expression at 1 uM after 48 hrs by RT-PCR analysis; type: cell-based
[46] = target: T1, Endothelial PAS domain-containing protein 1; test: Inhibition of HIF2alpha in human RCC4 cells coexpressing HIF1alpha assessed as reduction in GLUT1 mRNA expression at 1 uM after 48 hrs by RT-PCR analysis; type: cell-based
[47] = target: T1, Endothelial PAS domain-containing protein 1; test: Inhibition of HIF2alpha in human RCC4 cells coexpressing HIF1alpha assessed as reduction in TGFalpha mRNA expression at 1 uM after 48 hrs by RT-PCR analysis; type: cell-based
[48] = target: Hypoxia-inducible factor 1-alpha (Homo sapiens) (UniProt Q16665); test: Inhibition of HIF1alpha in human RCC4 cells coexpressing HIF2alpha assessed as decrease in carbonic anhydrase 9 mRNA expression at 1 uM after 48 hrs by RT-PCR analysis; type: cell-based
786-0 [49] = test: Downregulation of HIF2alpha mRNA expression in human 786-0 cells at 1 uM after 48 hrs by RT-PCR analysis; type: functional, cell-based
786-0 [50] = test: Downregulation of HIF1alpha mRNA expression in human 786-0 cells at 1 uM after 48 hrs by RT-PCR analysis; type: functional, cell-based
[51] = target: T1, Endothelial PAS domain-containing protein 1; test: Inhibition of HIF2alpha in human 786-0 cells assessed as reduction in VEGFA at 1 uM after 48 hrs by RT-PCR analysis; type: cell-based
[52] = target: T1, Endothelial PAS domain-containing protein 1; test: Inhibition of HIF2alpha in human 786-0 cells assessed as reduction in CCND1 mRNA expression at 1 uM after 48 hrs by RT-PCR analysis; type: cell-based
[53] = target: T1, Endothelial PAS domain-containing protein 1; test: Inhibition of HIF2alpha in human 786-0 cells assessed as reduction in GLUT1 mRNA expression at 1 uM after 48 hrs by RT-PCR analysis; type: cell-based
[54] = target: T1, Endothelial PAS domain-containing protein 1; test: Inhibition of HIF2alpha in human 786-0 cells assessed as reduction in TGFalpha mRNA expression at 1 uM after 48 hrs by RT-PCR analysis; type: cell-based
786-0 [55] = test: Down regulation of carbonic anhydrase 9 expression in human 786-0 cells at 1 uM after 48 hrs by RT-PCR analysis; type: functional, cell-based

Structure (SMILES): C#C[C@@H](O)/C=C/CCCCCCC#C[C@H](O)C#C/C=C/CC/C=C\CCCC/C=C\CCCCCCCCCCCCC/C=C/[C@@H](O)C#C [NEOPETROFORMYNE A]
- Activity (786-0 [1]): Active
- inhibition [2]: Active
- inhibition [3]: Active
- inhibition [4]: Active
- inhibition [5]: Active
- IC50 [6]: 35.1 µM
- IC50 [7]: 27.5 µM
- IC50 (786-0 [8]): 14.4 µM
- Activity (786-0 [9]): Toxic
- inhibition (786-0 [10]): Active
- EC50 [11]: 8.7 µM
- Activity [12]: Toxic
- Activity [13]: Toxic
- Activity (786-0 [14]): Toxic
- inhibition [15]: Active
- Activity [16]: Active
- Activity [17]: Active
- inhibition [18]: Active
- Activity (786-0 [19]): Active
- inhibition [20]: Active
- inhibition [21]: Active
- Activity [22]: Active
- Activity [23]: Active
- Activity [24]: Active
- Activity [25]: Active
- Activity [26]: Active
- Activity [27]: Active
- Activity [28]: Active
- inhibition [29]: Active
- inhibition [30]: Active
- inhibition [31]: Active
- inhibition [32]: Active
- Activity (786-0 [33]): Active

Structure (SMILES): Nc1nccc(-c2c3c(O)ccnc3n3c(N)nccc23)n1 [VARIOLIN B]
- IC50 [6]: > 100 µM
- IC50 [7]: 8.8 µM
- IC50 (786-0 [8]): > 100 µM
- inhibition (786-0 [34]): 50%
- EC50 [11]: 0.7 µM
- Activity [35]: inactive
- Activity [36]: inactive
- Activity [37]: inactive
- Activity [38]: inactive
- Activity [39]: inactive
- inhibition [40]: inactive
- inhibition [41]: inactive
- Activity [42]: inactive
- Activity [43]: inactive
- inhibition [44]: inactive
- inhibition [45]: inactive
- inhibition [46]: inactive
- inhibition [47]: inactive
- inhibition [48]: inactive
- Activity (786-0 [49]): inactive
- Activity (786-0 [50]): inactive
- inhibition [51]: inactive
- inhibition [52]: inactive
- inhibition [53]: inactive
- inhibition [54]: inactive
- Activity (786-0 [55]): inactive
